Results on 3 compounds are retold here after US11098257B2, “Bioderived fuels and methods of making the same” (Alliance for Sustainable Energy, LLC, priority 2019, dated 2021).

Assay type in all cases: physicochemical
Data set [1] can be described thus: Lower heating value from bomb calorimeter HHV (D240) and hydrogen content. To be noted: measured value. On the procedure:
Heating Values. HHV was found using a bomb calorimeter to combust 15 mL of sample (D240), with LHV calculated using sample hydrogen content (D240, Section 10.5.1) measured using a LECO TruSpec CHN determinator. To find hydrogen content, samples were combusted in excess oxygen at 950° C. The amount of CO2 and H2O produced could then be quantified using IR and using an EDTA calibration standard the hydrogen wt % could be extracted.

Data set [2] is described as follows: Water solubility, ether in aqueous layer by GC/MS. The note with it: thermodynamic from solid; purified ether, water saturated 1:5 by volume, left overnight. The procedure: Water Solubility. […] The mixed samples were left overnight to separate and the amount of ether in the aqueous layer was determined by GC/MS.
A short description of data set [3]: Rapid small-scale oxidation test (RSSOT), PetroOxy induction time. On the procedure:
The next important consideration is that of safety and fuel quality upon storage of the novel blendstock. Oxidation stability of 4-butoxyheptane was examined experimentally. Two distinct characterizations were performed regarding oxidation potential during storage. The first utilized a rapid small-scale oxidation test (RSSOT) using a PetroOxy instrument to determine induction time, which indicates the potential for a fuel to oxidize during storage, which may result in quality degradation from formation of low molecular weight acids and insoluble polymers.

Another data set in a line: Flash point measurement. To be noted: measured value. The procedure:
Flash point. D7094 was used to measure Tflash with an average error of ±1.3° C.

A short description of data set [4]: Boiling point (simulated distillation T90 D2887; blend by TGA). To be noted: measured value. An excerpt: Boiling Point. Tboil of pure was estimated using T90 of a simulated distillation (D2887), with blend Tboil determined using thermogravimetric analysis (TGA).
Data set [5] is described as follows: Storage stability aging per ASTM D4625, GC-MS profile. The note with it: GC-MS profile after 6 weeks of aging (simulating 6 months). On the procedure:
Storage stability testing. Aging conditions to test storage stability of the target ether are based on the procedure of ASTM D4625 Standard Test Method for Middle Distillate Fuel Storage Stability. This method accelerates the oxidation rate of diesel fuel by approximately 4-fold, with one week under these conditions equivalent to approximately one month of storage at 21° C. It should be noted that this degree of acceleration has not been validated for ethers, but nonetheless provides a standard protocol for diesel range sample aging. Aging was conducted for 6 weeks (simulating 6 months) with measurement of peroxide concentration at 2-week intervals. Peroxide concentration was measured following AOCS method Cd 8b-90, modified for potentiometric end point detection and smaller sample size. A sample of isoamyl ether (>99%, non-stabilized, Sigma-Aldrich) was aged alongside the 4-butoxyheptane for comparison. Samples of 4-butoxyheptane before and after aging were analyzed by gas chromatography with mass spectrometry (GC-MS) in an attempt to identify components produced by oxidation (see Table 11 below). The ether samples were diluted volumetrically in acetone 1:10. Analysis was conducted with an Agilent 7890A GC coupled with an Agilent 5975C mass selective detector (MSD). […]

The structures appear in SMILES notation. Values after ≈ are worked out from the molar mass of the structure shown.

The solubility is how much of the substance goes into solution per volume. A lower solubility goes with a poorly soluble substance. In the case of `CCCCOC(CCC)CCC` [4-butoxyheptane], the figures for the “Lower Heating Value” in data set [1] and in data set [1] (listed as drawing 5) were 39.2 mJ/kg and 39 mJ/kg, respectively. In data set [2], this compound gave a solubility of 15 µg/mL (≈ 87.1 µM). Further, the induction period result in data set [3] (neat ether, no antioxidant) was “about 23 minutes”. Also, the “induction period with antioxidant” value in data set [3] (with 100 ppm butylated hydroxytoluene (BHT)) is more than 60 min. For the same compound, the Flashpoint in the data set “Flash point measurement” turned out to be 64 °C. For the same compound, the “Boiling Point” value in data set [4] was 198 °C. The “% Total Area” value in data set [5] was 94.90%.

Consider `CCCCCCOC(CCC)CCC` [4-hexoxyheptane], for which, in data set [1], the “Lower Heating Value” turned out to be 43 mJ/kg. The same compound registered a Flashpoint in “Flash point measurement” of 68 °C. Moreover, the “Boiling Point” value in data set [4] is 234 °C.

In the case of `CCCCCC(CCCCC)OCC` [6-ethoxyundecane], the “Lower Heating Value” in data set [1] is 42 mJ/kg. The compound further yielded a Flashpoint in the data set “Flash point measurement” of 83 °C. Further, the “Boiling Point” value in data set [4] was 236 °C.
